# ChEMBL document CHEMBL5584239, “Discovery of novel quinoline scaffold selective estrogen receptor degraders (SERDs) for treatment of ER positive breast cancer with enhanced antiproliferative bioactivity through immunogenic cell death (ICD) effects” (Eur J Med Chem, 2024)
# Activity calls are given as the source filed them. The rule behind the calls is not given here.
# Columns and labels:
# [1] = tested on: Ishikawa; experiment: Antiproliferative activity against human Ishikawa cells at 20 uM incubated for 3 days by MTT assay relative to control; assay type: functional; settings: 72 h, time 3 day
# [2] = target: T1, Estrogen receptor (Homo sapiens) (UniProt P03372); experiment: Induction of estrogen receptor degradation in human MCF7 cells incubated for 24 hrs by Western blot analysis; assay type: cell-based; settings: dose 0.001-10 µM
# T1 sequence (whole entry): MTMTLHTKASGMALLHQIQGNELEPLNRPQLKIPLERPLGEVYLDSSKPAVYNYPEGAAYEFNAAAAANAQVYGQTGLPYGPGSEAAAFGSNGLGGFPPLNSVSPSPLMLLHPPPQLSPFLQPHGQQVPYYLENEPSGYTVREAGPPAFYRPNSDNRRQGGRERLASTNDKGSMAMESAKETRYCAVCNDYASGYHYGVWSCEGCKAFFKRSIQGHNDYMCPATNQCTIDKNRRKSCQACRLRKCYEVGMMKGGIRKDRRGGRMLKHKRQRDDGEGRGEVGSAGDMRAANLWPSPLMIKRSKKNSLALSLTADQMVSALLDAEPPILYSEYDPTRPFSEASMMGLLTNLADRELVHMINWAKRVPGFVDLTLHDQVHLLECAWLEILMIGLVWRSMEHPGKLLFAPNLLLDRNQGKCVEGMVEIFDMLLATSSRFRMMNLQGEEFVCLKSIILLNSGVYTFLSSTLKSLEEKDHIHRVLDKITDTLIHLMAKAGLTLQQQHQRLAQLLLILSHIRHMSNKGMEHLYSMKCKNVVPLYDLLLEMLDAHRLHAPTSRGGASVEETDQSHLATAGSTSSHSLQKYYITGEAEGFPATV
# [3] = target: T1, Estrogen receptor (Homo sapiens); experiment: Induction of estrogen receptor degradation in MG-132-treated human MCF7 cells at 10 uM incubated for 4 to 6 hrs by Western blot analysis; assay type: cell-based; settings: time 4-6 hrs
# [4] = target: T1, Estrogen receptor (Homo sapiens); experiment: Induction of estrogen receptor degradation in human MCF7 cells expressing ERE-luciferase at 10 uM incubated for 24 hrs by luminescence based analysis; assay type: cell-based
# [5] = Half life in rat at 5 mg/kg, iv measured for 1 to 24 hrs by LC-MS analysis; assay type: ADME, organism-based; settings: in vivo, time 1-24 hrs
# [6] = AUC (0 to t) in rat at 5 mg/kg, iv measured for 1 to 24 hrs by LC-MS analysis; assay type: ADME, organism-based; settings: in vivo, time 1-24 hrs
# [7] = Clearance in rat at 5 mg/kg, iv measured for 1 to 24 hrs by LC-MS analysis; assay type: ADME, organism-based; settings: in vivo, time 1-24 hrs
# [8] = MRT (0 to t) in rat at 5 mg/kg, iv measured for 1 to 24 hrs by LC-MS analysis; assay type: ADME, organism-based; settings: in vivo, time 1-24 hrs
# [9] = MRT (0 to infinity) in rat at 5 mg/kg, iv measured for 1 to 24 hrs by LC-MS analysis; assay type: ADME, organism-based; settings: in vivo, time 1-24 hrs
# [10] = Tmax in rat at 20 mg/kg, po measured for 1 to 24 hrs by LC-MS analysis; assay type: ADME, organism-based; settings: in vivo, time 1-24 hrs
# [11] = MRT (0 to t) in rat at 20 mg/kg, po measured for 1 to 24 hrs by LC-MS analysis; assay type: ADME, organism-based; settings: in vivo, time 1-24 hrs
# [12] = tested on: MCF7; experiment: Synergistic antiproliferative activity against human MCF7 cells at 0.1 to 10000 nM incubated for 5 days in presence of Ribociclib by MTT assay; assay type: functional, cell-based; settings: dose 0.1-10000 nM, time 5.0 day
# [13] = tested on: MCF7; experiment: Induction of ROS production in human MCF7 cells measured after 6 to 24 hrs by flow cytometry; assay type: functional, cell-based; settings: time 6-24 hrs
# [14] = tested on: MCF7; experiment: Induction of endoplasmic reticulum stress effect in human MCF7 cells assessed as change in calnexin level at 10 uM incubated for 3 to 24 hrs by Western blot analysis; assay type: functional, cell-based; settings: time 3-24 hrs
# [15] = tested on: MCF7; experiment: Induction of endoplasmic reticulum stress effect in human MCF7 cells assessed as change in ATF4 level at 10 uM incubated for 3 to 24 hrs by Western blot analysis; assay type: functional, cell-based; settings: time 3-24 hrs
# [16] = tested on: MCF7; experiment: Induction of endoplasmic reticulum stress effect in human MCF7 cells assessed as change in EIF-2alpha level at 10 uM incubated for 3 to 24 hrs by Western blot analysis; assay type: functional, cell-based; settings: time 3-24 hrs
# [17] = tested on: MCF7; experiment: Induction of endoplasmic reticulum stress effect in human MCF7 cells assessed as change in CHOP level at 10 uM incubated for 24 hrs by immunofluorescence based analysis; assay type: functional, cell-based
# [18] = tested on: MCF7; experiment: Induction of immunogenic cell death in human MCF7 cells assessed as CRT translocation at 10 uM by fluorescence microscopy; assay type: functional, cell-based
# [19] = tested on: MCF7; experiment: Induction of immunogenic cell death in human MCF7 cells assessed as HSP90 exposure at 10 uM by Western blot analysis; assay type: functional, cell-based
# [20] = tested on: MCF7; experiment: Induction of immunogenic cell death in human MCF7 cells assessed as HMGB1 release from nucleus at 10 uM by Western blot analysis; assay type: functional, cell-based
# [21] = tested on: MCF7; experiment: Antitumor activity against human MCF7 cells xenografted in nude mouse model at 60 mg/kg, po administered daily via gavage for 30 days in presence of ribociclib; assay type: functional, organism-based; settings: time 30.0 day
# [22] = Toxicity in nude mouse model xenografted with human MCF7 cells assessed as morphological change in spleen at 60 mg/kg, po administered daily via gavage for 30 days by H and E staining based analysis; assay type: organism-based; settings: in vivo, 720 h, time 30 day
# [23] = tested on: MCF7; experiment: Antitumor activity against human MCF7 cells xenografted in nude mouse model assessed as reduction in ER level at 60 mg/kg, po administered daily via gavage for 30 days in presence of ribociclib by IHC analysis; assay type: functional, organism-based; settings: time 30.0 day
# [24] = tested on: MCF7; experiment: Antitumor activity against human MCF7 cells xenografted in nude mouse model assessed as reduction in PR level at 60 mg/kg, po administered daily via gavage for 30 days in presence of ribociclib by IHC analysis; assay type: functional, organism-based; settings: time 30.0 day
compound,measurement,setting,value
CCc1ccccc1C(=O)c1cnc2cc(O)ccc2c1Oc1ccc(/C=C/C(=O)O)cc1,inhibition at 20 µM,[1],14%
same,Activity,[2],Dose-Dependent Effect
same,Activity,[3],inactive
same,Activity,[4],Active
same,half-life,[5],51.8 min
same,AUC(0-t),[6],3050 ng·h/mL
same,clearance,[7],27.8 mL/min/kg
same,MRT last,[8],7.2 min
same,MRT inf,[9],7.56 min
same,Tmax,[10],15 min
same,MRT last,[11],131 min
same,Activity,[12],Active
same,Activity,[13],inactive
same,Activity,[14],Active
same,Activity,[15],Active
same,Activity,[16],Active
same,Activity,[17],Active
same,Activity,[18],Active
same,Activity,[19],Active
same,Activity,[20],Active
same,Activity,[21],Active
same,Activity,[22],Non-Toxic
same,Activity,[23],Active
same,Activity,[24],Active
